This note sets out measurements from US20260138961A1, “MODULATORS OF MITOCHONDRIAL DNA REPLICATION” (Pretzel Therapeutics, Inc., priority 2022, published 2026).

Bounds are passed on as bounds.

For this assay, the target named is T1, human POLγ 3′-5′ exonuclease activity (Homo sapiens, UniProt P54098).
T1 sequence (P54098 1-1239): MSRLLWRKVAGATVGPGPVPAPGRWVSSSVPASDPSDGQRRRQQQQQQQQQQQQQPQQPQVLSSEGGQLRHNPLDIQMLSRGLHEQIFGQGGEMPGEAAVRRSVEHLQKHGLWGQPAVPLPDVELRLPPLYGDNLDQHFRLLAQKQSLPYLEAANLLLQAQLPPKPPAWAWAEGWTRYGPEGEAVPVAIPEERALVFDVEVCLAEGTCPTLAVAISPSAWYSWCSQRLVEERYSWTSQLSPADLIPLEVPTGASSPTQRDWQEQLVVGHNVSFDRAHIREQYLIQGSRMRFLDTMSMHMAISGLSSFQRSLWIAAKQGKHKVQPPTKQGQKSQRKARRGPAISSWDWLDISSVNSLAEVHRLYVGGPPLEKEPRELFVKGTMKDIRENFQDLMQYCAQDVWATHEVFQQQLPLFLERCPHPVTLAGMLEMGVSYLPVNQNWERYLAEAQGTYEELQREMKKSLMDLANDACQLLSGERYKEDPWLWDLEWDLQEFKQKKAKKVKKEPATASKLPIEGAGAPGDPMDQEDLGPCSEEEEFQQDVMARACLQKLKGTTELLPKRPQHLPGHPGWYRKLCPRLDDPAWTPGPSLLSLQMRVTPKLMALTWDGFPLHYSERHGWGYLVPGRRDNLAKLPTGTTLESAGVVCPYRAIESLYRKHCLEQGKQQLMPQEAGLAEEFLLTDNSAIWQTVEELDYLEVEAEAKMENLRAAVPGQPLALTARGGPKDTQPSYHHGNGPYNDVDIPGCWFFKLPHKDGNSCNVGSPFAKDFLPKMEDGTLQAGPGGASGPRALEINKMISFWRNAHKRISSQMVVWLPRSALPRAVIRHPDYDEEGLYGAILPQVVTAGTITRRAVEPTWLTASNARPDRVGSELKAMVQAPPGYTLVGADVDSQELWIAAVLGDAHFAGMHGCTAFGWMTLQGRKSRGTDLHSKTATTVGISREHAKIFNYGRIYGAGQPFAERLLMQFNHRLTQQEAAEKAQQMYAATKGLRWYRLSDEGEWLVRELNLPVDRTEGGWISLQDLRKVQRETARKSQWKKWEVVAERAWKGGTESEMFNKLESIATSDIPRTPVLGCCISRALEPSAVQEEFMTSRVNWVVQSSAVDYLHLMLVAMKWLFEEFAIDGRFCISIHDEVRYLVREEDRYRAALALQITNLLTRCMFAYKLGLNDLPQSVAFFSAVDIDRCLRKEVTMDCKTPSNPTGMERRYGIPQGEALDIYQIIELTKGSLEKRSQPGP
T1 sequence (Q9UHN1 1-485 partner): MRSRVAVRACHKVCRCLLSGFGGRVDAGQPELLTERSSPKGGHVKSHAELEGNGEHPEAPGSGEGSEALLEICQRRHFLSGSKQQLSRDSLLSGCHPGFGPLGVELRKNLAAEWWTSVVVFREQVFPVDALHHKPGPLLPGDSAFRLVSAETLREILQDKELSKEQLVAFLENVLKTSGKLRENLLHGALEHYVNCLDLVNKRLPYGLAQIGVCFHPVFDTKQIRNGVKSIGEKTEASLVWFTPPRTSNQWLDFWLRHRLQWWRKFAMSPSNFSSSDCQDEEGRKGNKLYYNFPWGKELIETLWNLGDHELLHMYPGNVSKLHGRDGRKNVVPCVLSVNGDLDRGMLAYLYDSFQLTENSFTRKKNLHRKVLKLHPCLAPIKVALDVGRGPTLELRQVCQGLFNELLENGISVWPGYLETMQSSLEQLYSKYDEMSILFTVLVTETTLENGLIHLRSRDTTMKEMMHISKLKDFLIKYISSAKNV
The assay is described as follows: Exonuclease inhibition assay with human POLγ (SYBR Green I fluorescence). The class given is biochemical. Conditions: POLγA 1 nM, POLγB 1.3 nM, 5 nM exonuclease template, no dNTPs, 37° C. 2.5 hours. The method, then:
Exonuclease inhibition assay with human POLγ.
The ability of small molecules to inhibit the 3′-5′ exonuclease activity of POLγ was analyzed in a quantitative fluorescence SYBR Green I assay with fluorescence intensity (FI) readout.
Human POLγ was incubated with a linear, partially double-stranded template containing an 85 base pair double-stranded DNA stretch and a 15 nucleotides long single-stranded 5′-tail (hereafter referred to as the “exonuclease template”). […] When bound to double-stranded DNA, SYBR Green I fluorescence increases by up to 100-fold. In the absence of deoxynucleotide triphosphates (dNTPs), the exonuclease activity of POLγ degrades the 85-mer strand, which leads to the formation of single-stranded DNA (ssDNA) and decreased fluorescent intensity. The assay was performed in a 384-well plate format.
The exonuclease template used was generated by hybridization of a 100 nucleotides long, single-stranded DNA molecule with an inverted dT at the 3′-end (5′-TTTTTTTTTATCCGGGCTCGTTATCTAAGCTGCTCTTGGTAGGCATTGACGTCCATACTGCAAATTCAGCTCTGTGCAGTTAGGCAGGAGTCTACAAGC invT-3′) to an 85 nucleotides long single-stranded DNA molecule (5′-AGCTTGTAGACTCCTGCCTAACTGCACAGAGCTGAATTTGCAGTATGGACGTCAATGCCTACCAGAGCAGCTTAGATAACGAGC-3′), using a Bio-Rad T100 Thermal Cycler. The inverted dT is characterized by a 3′-3′ linkage, which inhibits both degradation of the 3′-5′ exonuclease activity and extension by DNA polymerases.
POLγ is an heterotrimer of one POLγA subunit (harboring exonuclease and DNA polymerase activities) and two accessory POLγB subunits. Proteins used in the exonuclease assay were POLγA (NP_002684) and POLγB (NP_009146).
The protein mixture used in the assays contained POLγA (1 nM), POLγB (1.3 nM, concentration calculated as a dimer), 25 mM Tris-HCl (pH 8.0), 0.1 mg/mL bovine serum albumin, 1 mM Bond-Breaker TCEP solution (pH 7) [Thermo Fisher], 25 mM NaCl, and 0.02% Triton X-100.
The DNA template mixture used in the assay contained 5 nM of the exonuclease template, 25 mM Tris-HCl (pH 8.0), 10 mM MgCl2, 0.1 mg/mL bovine serum albumin, 1 mM Bond-Breaker TCEP solution [Thermo Fisher], and 0.02% Triton X-100.
Microplates with compounds (0.1 μL in each well) to be tested in the assay were prepared from 10 mM compound stocks in 100% DMSO, and equal amounts of DMSO without any compound were added to positive and negative control wells.
The protein mixture containing POLγ was dispensed (5 μL in each well) into compound plates and incubated at 37° C. for 15 minutes to allow compound binding to the POLγ complex. After incubation, 5 μL of the DNA template mixture was dispensed into each well. The plates were incubated at 37° C. for 2.5 hours.
During incubation, a combined stop buffer and detection reagent solution was prepared. The buffer contained 25 mM EDTA (pH 8.0), 0.02% Triton X-100, and SYBR Green I [Invitrogen] diluted 10,000× (for fluorescent readout). EDTA will stop the enzymatic reaction by chelating magnesium ions.
After the 2.5-hour incubation period, the SYBR Green I solution was added (10 μL) to the screening plates and the plates were incubated at room temperature in the dark for 20 minutes before the fluorescent signal was read between […] on a BMG Pherastar microtiter plate reader.
Turning to `Cc1ccc(C)c(S(=O)(=O)Nc2cccc(C(=O)N3CCCC[C@H]3C)c2)c1` [Example 5, (R)-2,5-dimethyl-N-(3-(2-methylpiperidine-1-carbonyl)phenyl)benzenesulfonamide], the IC50 turned out to be 3 µM. That is a single-digit micromolar value. In the case of `Cc1cc(S(=O)(=O)Nc2cccc(-c3nccn3C)c2)c(C)cc1Cl` [Example 19, 4-chloro-2,5-dimethyl-N-(3-(1-methyl-1H-imidazol-2-yl)phenyl)benzenesulfonamide] it was 8 µM; in that of `Cc1ccc(C)c(S(=O)(=O)Nc2cccc(C(=O)N3CCCCC3C#N)c2)c1` (stereo not shown) [Example 2, N-(3-(2-cyanopiperidine-1-carbonyl)phenyl)-2,5-dimethylbenzenesulfonamide], 4 µM; in that of `Cc1cc(S(=O)(=O)Nc2cccc(-c3nccs3)c2)c(C)cc1Cl` [Example 16, 4-chloro-2,5-dimethyl-N-(3-(thiazol-2-yl)phenyl)benzenesulfonamide], 12 µM.

In turn, `Cc1cc(S(=O)(=O)Nc2cccc(C(=O)NCc3ccccc3)c2)c(C)cc1Cl` [Example 11, N-benzyl-3-((4-chloro-2,5-dimethylphenyl)sulfonamido)benzamide] showed an IC50 of over 100 µM. In the case of `Cc1ccc(C)c(S(=O)(=O)Nc2cccc(C(=O)N3CCOCC3C#N)c2)c1` (stereo not shown) [Example 7, N-(3-(3-cyanomorpholine-4-carbonyl)phenyl)-2,5-dimethylbenzenesulfonamide] it was 1 µM; in that of `Cc1ccc(C)c(S(=O)(=O)Nc2cccc(C(=O)N[C@@H](C)C3CC3)c2)c1` [Example 8, (S)-N-(1-cyclopropylethyl)-3-((2,5-dimethylphenyl)sulfonamido)benzamide], 9 µM; in that of `Cc1cc(S(=O)(=O)Nc2ccc3c(c2)CC(=O)N3)c(C)cc1Cl` [Example 185, 4-chloro-2,5-dimethyl-N-(2-oxoindolin-5-yl)benzenesulfonamide], 6 µM. As for `Cc1cc(S(=O)(=O)Nc2cccc(C(=O)N3CCCC[C@H]3C)c2)c(C)cc1Cl` [Example 9, (R)-4-chloro-2,5-dimethyl-N-(3-(2-methylpiperidine-1-carbonyl)phenyl)benzenesulfonamide], the figure is 2 µM; as for `Cc1cc(S(=O)(=O)Nc2cccc(C(=O)N(C)C)c2)c(C)cc1Cl` [Example 12, 3-((4-chloro-2,5-dimethylphenyl)sulfonamido)-N,N-dimethylbenzamide], 5 µM; as for `Cc1ccc(C)c(S(=O)(=O)Nc2cccc(C(=O)NCC3CC3)c2)c1` [Example 4, N-(cyclopropylmethyl)-3-((2,5-dimethylphenyl)sulfonamido)benzamide], 48 µM. Compound “(R)-2,5-dimethyl-N-(3-(3-methylmorpholine-4-carbonyl)phenyl)benzenesulfonamide [Example 1]” showed a half-maximal inhibitory concentration (IC50) of 7 µM. Compared with the last compound, the IC50 is about 6.9-fold lower. In the case of `Cc1cc(S(=O)(=O)Nc2cccc(C(=O)N(C)C(C)CO)c2)c(C)cc1Cl` (single isomer, unassigned) [Example 14, 3-((4-chloro-2,5-dimethylphenyl)sulfonamido)-N-(1-hydroxypropan-2-yl)-N-methylbenzamide] it was 3 µM.

With `Cc1cc(S(=O)(=O)Nc2cc(F)cc(C(=O)N3CCC[C@H]3C)c2)c(C)cc1Cl` [Example 13, (R)-4-chloro-N-(3-fluoro-5-(2-methylpyrrolidine-1-carbonyl)phenyl)-2,5-dimethylbenzenesulfonamide], the IC50 is 6 µM. In the case of `Cc1ccc(C)c(S(=O)(=O)Nc2cccc(C(=O)N3CCCC[C@@H]3C)c2)c1` [Example 6, (S)-2,5-dimethyl-N-(3-(2-methylpiperidine-1-carbonyl)phenyl)benzenesulfonamide] it was 12 µM; in that of `Cc1cc(S(=O)(=O)Nc2cccc(-c3ccn(C)n3)c2)c(C)cc1Cl` [Example 18, 4-chloro-2,5-dimethyl-N-(3-(1-methyl-1H-pyrazol-3-yl)phenyl)benzenesulfonamide], 81 µM; in that of `Cc1cc(S(=O)(=O)Nc2cccc(-c3ncco3)c2)c(C)cc1Cl` [Example 17, 4-chloro-2,5-dimethyl-N-(3-(oxazol-2-yl)phenyl)benzenesulfonamide], over 100 µM. As for `Cc1cc(S(=O)(=O)Nc2cccc(C(=O)N3CCC[C@H]3C)c2)c(C)cc1Cl` [Example 10, (R)-4-chloro-2,5-dimethyl-N-(3-(2-methylpyrrolidine-1-carbonyl)phenyl)benzenesulfonamide], the figure is 0.8 µM. In the case of `Cc1ccc(C)c(S(=O)(=O)Nc2cccc(C(=O)N3CCCCC3)c2)c1` [Example 3, 2,5-dimethyl-N-(3-(piperidine-1-carbonyl)phenyl)benzene sulfonamide] it was 10 µM.
